Reference: patent US9403810B2, “Carboxamide derivatives” (Novartis AG, priority 2014, dated 2016)

Target: Smurf-1 (Homo sapiens (Human), UniProt Q9HCE7)
Assay: HECT E3 ligase autoubiquitinylation TR-FRET assay (Smurf-1)
Format: biochemical
Details: 8-point dose-response curve, 3 nM to 10 uM; 45 min incubation
Excerpt: To determine the HECT E3 ligase selectivity of the compounds, a panel of biochemical HECT E3 ligase autoubiquitinylation assays was employed (Smurf-1, Smurf-2, WWP1, WWP2, ITCH, Nedd4, Nedd4L and E6AP). The conjugation of ubiquitin to a protein substrate is a multistep process. In an initial ATP-requiring step, a thioester bond is formed between the carboxyl terminus of ubiquitin and an internal cystein residue of the ubiquitin-activating enzyme (E1). Activated ubiquitin is then transferred to a specific cystein residue of an ubiquitin-conjugating enzyme (E2). E2s donate ubiquitin to a HECT E3 ligase (E3) from which it is transferred to the substrate protein. HECT E3 ligases can auto-ubiquitinylate. This event is detected in the TR-FRET (Time-Resolved Fluorescence Resonance Energy Transfer) assay used in this panel. The reaction mix contains E1, E2, tagged-E3, biotin-conjugated ubiquitin, the compound and ATP in a suitable buffer and is incubated for 45 minutes to allow auto-ubiquitinylation of the E3 ligase. To measure the extent of ubiquitinylated E3 ligase by TR-FRET, the donor fluorophore Europium cryptate (Eu3+ cryptate), conjugated to streptavidin which subsequently binds to biotinylated ubiquitin, and the modified allophycocyanin XL665 (HTRF® primary acceptor fluorophore) coupled to a tag-specific antibody (HA, His or GST), which recognizes the respective E3 ligase fusion proteins, are added after the reaction is complete. When these two fluorophores are brought together by a bimolecular interaction (in this case ubiquitinylation of the E3 ligase), a portion of the energy captured by the Cryptate during excitation is released through fluorescence emission at 620 nm, while the remaining energy is transferred to XL665. This energy is then released by XL665 as specific fluorescence at 665 nm. Light at 665 nm is emitted only through FRET with Europium.
Test and reference compounds are prepared at 180× [final] in 90% DMSO, and diluted 1:3 in 90% DMSO.
For the biochemical assay panel, 50 nl of the test compounds, reference compounds and buffer/DMSO control are transferred to the respective wells of a 384-well white GREINER “SMALL VOLUME” PS plate. The assay panel is run at room temperature on a Biomek FX liquid handling workstation. To the assay plates containing 50 nl compound or control solutions in 90% DMSO, 4.5 ul of E3 ligase solution were added per well, followed by 4.5 ul of the pre-incubated E1/E2/Ub mix or the pre-diluted ubiquitin (LOW control). Plates are shaken vigorously after each addition. In this assay the compound concentrations range from 3 nM to 10 uM in an 8-point dose-response curve.
After an incubation time of 45 min in the dark, the plates are transferred into the Pherastar fluorescence reader to measure the TR-FRET signal.

Chain of Smurf-1 (Q9HCE7 whole entry): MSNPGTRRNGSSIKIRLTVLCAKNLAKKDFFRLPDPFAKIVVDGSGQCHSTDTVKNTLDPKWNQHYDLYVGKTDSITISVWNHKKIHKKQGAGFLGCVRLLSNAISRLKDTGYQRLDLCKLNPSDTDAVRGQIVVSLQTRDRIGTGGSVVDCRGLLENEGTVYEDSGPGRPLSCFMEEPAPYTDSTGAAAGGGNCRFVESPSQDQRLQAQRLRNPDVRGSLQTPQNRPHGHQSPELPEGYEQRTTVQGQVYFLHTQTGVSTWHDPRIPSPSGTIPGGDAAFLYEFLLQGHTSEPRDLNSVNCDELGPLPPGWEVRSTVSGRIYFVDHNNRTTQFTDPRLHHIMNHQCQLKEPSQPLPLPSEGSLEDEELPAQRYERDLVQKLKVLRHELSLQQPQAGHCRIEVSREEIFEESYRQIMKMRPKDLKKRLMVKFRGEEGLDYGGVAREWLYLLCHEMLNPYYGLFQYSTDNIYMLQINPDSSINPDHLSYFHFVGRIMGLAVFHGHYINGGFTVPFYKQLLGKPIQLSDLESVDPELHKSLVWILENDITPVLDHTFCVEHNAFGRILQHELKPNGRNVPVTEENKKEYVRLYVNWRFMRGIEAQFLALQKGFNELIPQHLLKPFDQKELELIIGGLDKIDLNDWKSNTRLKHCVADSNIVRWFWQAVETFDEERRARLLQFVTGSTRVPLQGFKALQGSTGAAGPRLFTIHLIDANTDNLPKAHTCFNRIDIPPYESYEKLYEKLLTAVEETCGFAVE

Row | IC50 | Structure (SMILES)
1 | 2500 nM | CO[C@@H]1C[C@@H](C(C)(C)C)O[C@@H](c2onc(C(=O)Nc3c(C)n(C)n(C4CCC4)c3=O)c2C)C1.CO[C@@H]1C[C@@H](c2onc(C(=O)Nc3c(C)n(C)n(C4CCC4)c3=O)c2C)O[C@@H](C(C)(C)C)C1 (mixture of isomers) [Example 14, 5-((2R,4R,6S)-6-(tert-butyl)-4-methoxytetrahydro-2H-pyran-2-yl)-N-(2-cyclobutyl-1,5-dimethyl-3-oxo-2,3-dihydro-1H-pyrazol-4-yl)-4-methylisoxazole-3-carboxamide and 5-((2S,4S,6R)-6-(tert-butyl)-4-methoxytetrahydro-2H-pyran-2-yl)-N-(2-cyclobutyl-1,5-dimethyl-3-oxo-2,3-dihydro-1H-pyrazol-4-yl)-4-methylisoxazole-3-carboxamide]
2 | 640 nM | CO[C@H]1C[C@@H](c2onc(C(=O)Nc3c(C)n(C)n(C4CCCCC4)c3=O)c2C)O[C@@H](C(C)(C)C)C1 (racemic) [Example 13, 5-((2S,4R,6R)-6-(tert-butyl)-4-methoxytetrahydro-2H-pyran-2-yl)-N-(2-cyclohexyl-1,5-dimethyl-3-oxo-2,3-dihydro-1H-pyrazol-4-yl)-4-methylisoxazole-3-carboxamide and 5-((2R,4S,6S)-6-(tert-butyl)-4-methoxytetrahydro-2H-pyran-2-yl)-N-(2-cyclohexyl-1,5-dimethyl-3-oxo-2,3-dihydro-1H-pyrazol-4-yl)-4-methylisoxazole-3-carboxamide]
3 | 1800 nM | Cc1c(C(=O)Nc2c(C)n(C)n(C3CCCCC3)c2=O)noc1[C@@H]1CC=C[C@H](C)O1 (racemic) [Example 19, N-(2-cyclohexyl-1,5-dimethyl-3-oxo-2,3-dihydro-1H-pyrazol-4-yl)-4-methyl-5-((2S,6S)-6-methyl-3,6-dihydro-2H-pyran-2-yl)isoxazole-3-carboxamide and N-(2-cyclohexyl-1,5-dimethyl-3-oxo-2,3-dihydro-1H-pyrazol-4-yl)-4-methyl-5-((2R,6R)-6-methyl-3,6-dihydro-2H-pyran-2-yl)isoxazole-3-carboxamide]
4 | 290 nM | CO[C@H]1C[C@@H](c2onc(C(=O)Nc3c(C)n(C)n(C4CCCCC4)c3=O)c2C)O[C@@H](C(C)(C)C)C1 (single isomer, unassigned) [Example 13a, 5-((2S,4R,6R)-6-(tert-butyl)-4-methoxytetrahydro-2H-pyran-2-yl)-N-(2-cyclohexyl-1,5-dimethyl-3-oxo-2,3-dihydro-1H-pyrazol-4-yl)-4-methylisoxazole-3-carboxamide or 5-((2R,4S,6S)-6-(tert-butyl)-4-methoxytetrahydro-2H-pyran-2-yl)-N-(2-cyclohexyl-1,5-dimethyl-3-oxo-2,3-dihydro-1H-pyrazol-4-yl)-4-methylisoxazole-3-carboxamide]
5 | 730 nM | CO[C@H]1C[C@@H](c2onc(C(=O)Nc3c(C)n(C)n(C4CCCCC4)c3=O)c2C)O[C@@H](C(C)(C)C)C1 (single isomer, unassigned) [Example 13b, 5-((2S,4R,6R)-6-(tert-butyl)-4-methoxytetrahydro-2H-pyran-2-yl)-N-(2-cyclohexyl-1,5-dimethyl-3-oxo-2,3-dihydro-1H-pyrazol-4-yl)-4-methylisoxazole-3-carboxamide or 5-((2R,4S,6S)-6-(tert-butyl)-4-methoxytetrahydro-2H-pyran-2-yl)-N-(2-cyclohexyl-1,5-dimethyl-3-oxo-2,3-dihydro-1H-pyrazol-4-yl)-4-methylisoxazole-3-carboxamide]
6 | 290 nM | Cc1c(C(=O)Nc2c(C)n(C)n(C3CCC3)c2=O)noc1[C@@H]1CCC[C@H](C(C)(C)C)O1 (single isomer, unassigned) [Example 15a, 5-((2S,6R)-6-(tert-Butyl)tetrahydro-2H-pyran-2-yl)-N-(2-cyclobutyl-1,5-dimethyl-3-oxo-2,3-dihydro-1H-pyrazol-4-yl)-4-methylisoxazole-3-carboxamide or 5-((2R,6S)-6-(tert-Butyl)tetrahydro-2H-pyran-2-yl)-N-(2-cyclobutyl-1,5-dimethyl-3-oxo-2,3-dihydro-1H-pyrazol-4-yl)-4-methylisoxazole-3-carboxamide]
7 | 630 nM | Cc1c(C(=O)Nc2c(C)n(C)n(C3CCC3)c2=O)noc1[C@H]1CCC[C@@H](C(C)(C)C)O1 (single isomer, unassigned) [Example 15b, 5-((2R,6S)-6-(tert-butyl)tetrahydro-2H-pyran-2-yl)-N-(2-cyclobutyl-1,5-dimethyl-3-oxo-2,3-dihydro-1H-pyrazol-4-yl)-4-methylisoxazole-3-carboxamide or 5-((2S,6R)-6-(tert-Butyl)tetrahydro-2H-pyran-2-yl)-N-(2-cyclobutyl-1,5-dimethyl-3-oxo-2,3-dihydro-1H-pyrazol-4-yl)-4-methylisoxazole-3-carboxamide]
8 | 37 nM | Cc1c(C(=O)Nc2c(C)n(C)n(C3CCCCC3)c2=O)noc1[C@@H]1CCC[C@H](C(C)(C)C)O1 (single isomer, unassigned) [Example 16, 5-((2S,6R)-6-(tert-butyl)tetrahydro-2H-pyran-2-yl)-N-(2-cyclohexyl-1,5-dimethyl-3-oxo-2,3-dihydro-1H-pyrazol-4-yl)-4-methylisoxazole-3-carboxamide or 5-((2R,6S)-6-(tert-butyl)tetrahydro-2H-pyran-2-yl)-N-(2-cyclohexyl-1,5-dimethyl-3-oxo-2,3-dihydro-1H-pyrazol-4-yl)-4-methylisoxazole-3-carboxamide]
9 | 2.8 nM | Cc1c(C(=O)Nc2c(C)n(C)n(C3CCCCC3)c2=O)noc1C1=CCC(C(C)C)CC1 (stereo not drawn) [Example 1, N-(2-Cyclohexyl-1,5-dimethyl-3-oxo-2,3-dihydro-1H-pyrazol-4-yl)-5-(4-isopropylcyclohex-1-en-1-yl)-4-methylisoxazole-3-carboxamide]
10 | 2.1 nM | CCC1CC(C)CC=C1c1onc(C(=O)Nc2c(C)n(C)n(C3CCCCC3)c2=O)c1C (stereo not drawn) [Example 1.1, N-(2-Cyclohexyl-1,5-dimethyl-3-oxo-2,3-dihydro-1H-pyrazol-4-yl)-5-(6-ethyl-4-methylcyclohex-1-en-1-yl)-4-methylisoxazole-3-carboxamide]
11 | 14 nM | Cc1c(C(=O)Nc2c(C)n(C)n(C3CCCCC3)c2=O)noc1C1=CCCCC1(C)C [Example 1.2, N-(2-Cyclohexyl-1,5-dimethyl-3-oxo-2,3-dihydro-1H-pyrazol-4-yl)-5-(6,6-dimethylcyclohex-1-en-1-yl)-4-methylisoxazole-3-carboxamide]
12 | 1.8 nM | CCC1CC=C(c2onc(C(=O)Nc3c(C)n(C)n(C4CCCCC4)c3=O)c2C)CC1 (stereo not drawn) [Example 1.3, N-(2-Cyclohexyl-1,5-dimethyl-3-oxo-2,3-dihydro-1H-pyrazol-4-yl)-5-(4-ethylcyclohex-1-en-1-yl)-4-methylisoxazole-3-carboxamide]
13 | 3.2 nM | Cc1c(C(=O)Nc2c(C)n(C)n(C3CCCCC3)c2=O)noc1C1=CCC(C(C)(C)C)CC1 (stereo not drawn) [Example 1.4, 5-(4-(tert-Butyl)cyclohex-1-en-1-yl)-N-(2-cyclohexyl-1,5-dimethyl-3-oxo-2,3-dihydro-1H-pyrazol-4-yl)-4-methylisoxazole-3-carboxamide]
14 | 8 nM | Cc1c(C(=O)Nc2c(C)n(C)n(C3CCCCC3)c2=O)noc1C1=CCCCCC1 [Example 1.6, 5-(Cyclohept-1-en-1-yl)-N-(2-cyclohexyl-1,5-dimethyl-3-oxo-2,3-dihydro-1H-pyrazol-4-yl)-4-methylisoxazole-3-carboxamide]
15 | 33 nM | Cc1c(C(=O)Nc2c(C)n(C)n(C3CCCCC3)c2=O)noc1C1=CCC(C(F)(F)F)CC1 (stereo not drawn) [Example 1.7, N-(2-Cyclohexyl-1,5-dimethyl-3-oxo-2,3-dihydro-1H-pyrazol-4-yl)-4-methyl-5-(4-(trifluoromethyl)cyclohex-1-en-1-yl)isoxazole-3-carboxamide]
16 | 2.5 nM | Cc1c(C(=O)Nc2c(C)n(C)n(C3CCCCC3)c2=O)noc1C1=CCC2(CCCC2)CC1 [Example 2, N-(2-Cyclohexyl-1,5-dimethyl-3-oxo-2,3-dihydro-1H-pyrazol-4-yl)-4-methyl-5-(spiro[4.5]dec-7-en-8-yl)isoxazole-3-carboxamide]
17 | 64 nM | Cc1c(C(=O)Nc2c(C)n(C)n(C3CCCCC3)c2=O)noc1C1=CCC2(CCCO2)CC1 (stereo not drawn) [Example 2.1, N-(2-Cyclohexyl-1,5-dimethyl-3-oxo-2,3-dihydro-1H-pyrazol-4-yl)-4-methyl-5-(1-oxaspiro[4.5]dec-7-en-8-yl)isoxazole-3-carboxamide]

Row | Structure (SMILES) | IC50
18 | Cc1c(C(=O)Nc2c(C)n(C)n(C3CCCCC3)c2=O)noc1C1CC=CC(C(C)C)O1 (mixture of isomers) [Example 18] | 91 nM
